In data set [1] the test system is ANF postsynaptic terminals. Details: method as in Puel et al., 1994. The note with it: chemical lesion, basal cochlear turn perfusion ref Puel et al., 1994; cited from earlier work.
In data set [2] the test system is ribbon synapses and ANF dendrites in the inner spiral plexus. Briefly: Apical cochlear perfusion of kainic acid, immunohistofluorescence and confocal microscopy. The class given is in vivo, guinea pig. The note with it: 2 mM in artificial perilymph, apical perfusion of scala tympani. The procedure:
Following cardiac perfusion of 4% PFA in 0.1 M phosphate buffer and cervical dislocation, the temporal bone was immediately harvested, and the cochlea was isolated. Each cochlea was post-fixed for 20 min at 4°C in a dish with 4% PFA, where a small fenestration was made in the round window, oval window, and the apex of each cochlea to gently flush with 1 mL of fixative. Each cochlea was then decalcified in 10% EDTA at room temperature for 6 h, exchanging EDTA every 2 h. The decalcified outer bone was removed to reveal the underlying cochlear spiral. Small pieces of cochlear turns were placed in buffer overnight at 4°C in Triton X-100 with donkey serum. […]
The method of apical intracochlear drug delivery has previously been well-detailed (Lichtenhan et al., [2016a]). […] Response waveforms were recorded immediately prior to apical drug perfusion to establish a baseline, throughout perfusion which took 6 min, and then immediately after perfusion, from a round window electrode. […]

The test system of data set [3] is cochlear afferent synapses. Set-up: method as in earlier work. The note with it: ref Robertson, 1983; Puel et al., 1998; Furman et al., 2013; Hickman et al., 2020; cited from earlier work.

Structures are written as SMILES.

On to `NC(CCCP(=O)(O)O)C(=O)O` [D-AP5], for which the “effect of pre-perfusion on ANF terminal swelling” value in data set [1] is reported as “not”.

On to `O=c1[nH]c2cc([N+](=O)[O-])c([N+](=O)[O-])cc2[nH]c1=O` [DNQX], for which the “effect of pre-perfusion on ANF terminal swelling” value in data set [1] is “prevented”.

On to `C=C(C)[C@H]1CN[C@H](C(=O)O)[C@H]1CC(=O)O` [KA, kainic acid], for which the “effect on innervation and ribbon synapses” value in data set [2] was “void of innervation in the ISP and ribbon synapse disintegration”.

Take `O=C(O)c1cc(=O)c2ccccc2[nH]1` [kynurenic acid]: in data set [3], the “effect on synapse loss and osmotic damage after synaptopathic noise exposure” value is reported as “blocked”.
